Laboratory results reported in ChEMBL document CHEMBL3745652, “Synthesis and evaluation of pretomanid (PA-824) oxazolidinone hybrids” (Bioorg Med Chem Lett, 2016).
Converted amounts (≈) assume the structure as drawn. The source made the active and inactive calls. The rule behind the calls is not given here.

Key:
[1] = system: Klebsiella pneumoniae; test: Antimicrobial activity against Klebsiella pneumoniae; format: functional, organism-based
[2] = AUC(infinity) in C57BL/6 mouse at 10 mg/kg, iv; format: ADME, organism-based; set-up: dose 10 mg/kg, time infinity, route intravenous; conditions: in vivo
[3] = Plasma protein binding in human; format: ADME, cell-free
[4] = Clearance in C57BL/6 mouse at 10 mg/kg, iv; format: ADME, organism-based; conditions: in vivo
[5] = system: Enterococcus faecalis; test: Antimicrobial activity against Enterococcus faecalis; format: functional, organism-based
[6] = system: Bacillus subtilis; test: Antimicrobial activity against Bacillus subtilis; format: functional, organism-based
[7] = Half life in mouse liver microsomes; format: ADME; conditions: microsomes
[8] = system: Streptococcus pyogenes; test: Antimicrobial activity against Streptococcus pyogenes; format: functional, organism-based
[9] = system: Streptococcus pneumoniae; test: Antimicrobial activity against Streptococcus pneumoniae; format: functional, organism-based
[10] = system: Mycobacterium tuberculosis; test: Antimicrobial activity against Mycobacterium tuberculosis H37Rv assessed as growth inhibition after 7 days by microbroth dilution method; format: functional; conditions: 168 h
[11] = Apparent permeability from apical to basolateral side in human Caco2 cells; format: ADME, cell-based; conditions: caco-2
[12] = system: Mus musculus; test: Toxicity in C57BL/6 mouse at 300 mg/kg, po after 3 days; format: organism-based; conditions: in vivo, 72 h
[13] = Half life in C57BL/6 mouse at 10 mg/kg, iv; format: ADME, organism-based; conditions: in vivo
[14] = system: Escherichia coli; test: Antimicrobial activity against Escherichia coli; format: functional, organism-based
[15] = system: Vero; test: Cytotoxicity against African green monkey Vero cells by cell titer glo assay; format: cell-based; conditions: Chlorocebus sabaeus
[16] = system: Acinetobacter baumannii; test: Antimicrobial activity against Acinetobacter baumannii; format: functional, organism-based
[17] = system: Bacillus anthracis; test: Antimicrobial activity against Bacillus anthracis; format: functional, organism-based
[18] = Volume of distribution at steady state in C57BL/6 mouse at 10 mg/kg, iv; format: ADME, organism-based; conditions: in vivo, read-out: Vdss
[19] = system: Mycobacterium tuberculosis; test: Antimicrobial activity against Mycobacterium tuberculosis H37Rv infected in C57BL/6 mouse assessed as reduction in bacterial load at 100 mg/kg, po after 28 days; format: functional, organism-based
[20] = Apparent permeability from basolateral to apical side in human Caco2 cells; format: ADME, cell-based; conditions: caco-2
[21] = system: Staphylococcus aureus; test: Antimicrobial activity against Staphylococcus aureus; format: functional, organism-based

Row | Structure (SMILES) | Activity [1] | AUC(0-inf) [2] | PPB [3] | clearance [4] | Activity [5] | Activity [6] | t1/2 [7] | Activity [8] | Activity [9] | MIC [10] | Papp [11] | Activity [12] | half-life [13] | Activity [14] | IC50 [15] | Activity [16] | Activity [17] | Vd [18] | Activity [19] | Papp [20] | further results
1 | O=C1COCCN1c1ccc(CO[C@@H]2COc3nc([N+](=O)[O-])cn3C2)cc1 | inactive | 7410 ng·h/mL | 50.4% | 22.5 mL/min/kg | inactive | inactive | 1100 min | inactive | inactive | 0.78 µg/mL (≈ 2.08 µM) | 40.08 ×10⁻⁶ cm/s | Non-toxic | 28.8 min | inactive | > 100 µg/mL | inactive | inactive | 0.79 L/kg | inactive | 30.56 ×10⁻⁶ cm/s | Activity [21]: inactive
2 | O=C1COCCN1c1ccc(CO[C@@H]2COc3nc([N+](=O)[O-])cn3C2)cc1F | inactive | 5180 ng·h/mL | 67.8% | 32.3 mL/min/kg | inactive | inactive | 792 min | inactive | inactive | 0.78 µg/mL (≈ 1.99 µM) | 50.57 ×10⁻⁶ cm/s | Non-toxic | 16.8 min | inactive | > 100 µg/mL | inactive | inactive | 0.63 L/kg | inactive | 31.67 ×10⁻⁶ cm/s | Activity [21]: inactive
